Laboratory results from US10221163B2 (priority 2015, dated 2019).
pIC50: −log10 of the molar value.

Experiments:
[1] = test system: Pseudomonas aeruginosa efflux+ (MB9798), IMP-1; type: cell-based; conditions: concentration restoring susceptibility to imipenem at 2 μg/mL in the presence of a class A, C, D serine β-lactamase inhibitor closely related to relebactam
How it was run: (§1)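 Microbroth MIC tests in PAO1-background strains with fixed imipenem and/or ceftazidime, usually at the CLSI breakpoint, plus fixed class A/C β-lactamase inhibitor against AmpC. MBL inhibitor titrated; concentration restoring susceptibility recorded and compared as fold difference between efflux+ MB9798 and efflux− MB9799.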

NDM-1 = NDM-1 (Klebsiella pneumoniae, UniProt C7C422); test: biochemical; type: biochemical; conditions: fluorescence assay, CCF2-FA substrate, 1 pM enzyme, 2 hours at 25° C.; read-out: NDM-1 IC50
NDM-1, sequence (C7C422 whole entry, looked up, species assumed): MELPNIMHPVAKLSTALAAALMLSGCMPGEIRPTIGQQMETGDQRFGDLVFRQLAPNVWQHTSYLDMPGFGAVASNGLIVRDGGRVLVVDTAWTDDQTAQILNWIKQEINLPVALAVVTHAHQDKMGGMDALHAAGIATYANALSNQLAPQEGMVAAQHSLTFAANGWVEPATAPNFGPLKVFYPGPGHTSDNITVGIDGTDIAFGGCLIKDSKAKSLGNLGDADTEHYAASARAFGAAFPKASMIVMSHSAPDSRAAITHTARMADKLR
How it was run: (§2)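 Semi-log dose-response curves, fitted with a 4-parameter model, gave IC50s. The underlying signal was CCF2-FA fluorescence following 2 hours at 25° C with enzyme, substrate and inhibitor combined.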

IMP-1 = IMP-1 (Serratia marcescens, UniProt P52699); test: biochemical; type: biochemical; conditions: fluorescence assay, CCF2-FA substrate, 2 pM enzyme, 2 hours at 25° C.; read-out: IMP-1 IC50
IMP-1, sequence (P52699 whole entry, looked up, species assumed): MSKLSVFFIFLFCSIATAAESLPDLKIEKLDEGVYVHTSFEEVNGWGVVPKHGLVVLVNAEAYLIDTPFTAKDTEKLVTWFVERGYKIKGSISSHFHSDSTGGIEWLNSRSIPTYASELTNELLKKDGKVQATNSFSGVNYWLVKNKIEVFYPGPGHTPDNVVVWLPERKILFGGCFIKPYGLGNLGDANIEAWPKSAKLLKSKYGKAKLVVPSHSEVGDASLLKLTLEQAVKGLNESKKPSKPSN
How it was run: as §2

[2] = test system: Pseudomonas aeruginosa efflux− (MB9799), IMP-1; type: cell-based; conditions: concentration restoring susceptibility to imipenem at 2 μg/mL in the presence of a class A, C, D serine β-lactamase inhibitor closely related to relebactam
How it was run: as §1

[3] = test system: Klebsiella pneumoniae expressing VIM-1 (IHMA599644); type: cell-based; conditions: with imipenem 1 μg/ml; 95% inhibition of bacterial growth
How it was run: (§3)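 Colonies grown overnight on blood agar at 35° C were suspended in saline, diluted 1:100 into 1.1×CAMHB and dispensed. Imipenem was added to 1 μg/ml, then test compound. After 22 hours to 24 hours at 35° C, absorbance was recorded.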

[4] = test system: Escherichia coli expressing NDM-1 (CLB30005, CLB30016); type: cell-based; conditions: with imipenem 1 μg/ml; 95% inhibition of bacterial growth
How it was run: as §3

[5] = test system: Serratia marcescens expressing IMP-1 (CL5741); type: cell-based; conditions: with imipenem 1 μg/ml; 95% inhibition of bacterial growth
How it was run: as §3

[6] = test system: Pseudomonas aeruginosa MB9798 vs MB9799; conditions: ratio MITC95 PA_9798/MITC95 PA_9799
How it was run: as §1

VIM-1 = VIM-1 (Pseudomonas aeruginosa (strain ATCC 15692 / DSM 22644 / CIP 104116 / JCM 14847 / LMG 12228 / 1C / PRS 101 / PAO1), UniProt A0A0F7KYQ8); test: biochemical; conditions: fluorescence assay, CCF2-FA substrate, 30 pM enzyme, 2 hours at 25° C.; read-out: VIM-1 IC50
How it was run: as §2

SMILES	P. aeruginosa expressing IMP-1, efflux + (MB9798) MITC95 [1]	pIC50 (NDM-1)	pIC50 (IMP-1)	P. aeruginosa expressing IMP-1, efflux − (MB9799) MITC95 [2]	Klebsiella pneumoniae expressing VIM-1 (IHMA599644) MITC95 [3]	Escherichia coli expressing NDM-1 (CLB30016) MITC95 [4]	Serratia marcescens expressing IMP-1 (CL5741) MITC95 [5]	Efflux ratio [6]	pIC50 (VIM-1)
Nc1ccc(-c2ccc(S(=O)(=O)N[C@H]3CCNC3)c(S(N)(=O)=O)c2-c2nn[nH]n2)cn1 [Example 195, (S)-4-(6-aminopyridin-3-yl)-N^1-(pyrrolidin-3-yl)-3-(2H-tetrazol-5-yl)benzene-1,2-disulfonamide]	0.7813 µM	9.77	9.28	0.7813 µM	1.563 µM	0.5859 µM	0.5859 µM	1.00	9.74
NCCNS(=O)(=O)c1ccc(-c2ccc(N)nc2)c(-c2nn[nH]n2)c1S(N)(=O)=O [Example 196, N^1-(2-aminoethyl)-4-(6-aminopyridin-3-yl)-3-(2H-tetrazol-5-yl)benzene-1,2-disulfonamide]	0.7656 µM	9.48	9.32	0.7656 µM	1.336 µM	0.03125 µM	0.2969 µM	1.00	9.66
NS(=O)(=O)c1c(S(=O)(=O)N[C@H]2CCNC2)ccc(-c2cccc3[nH]cnc23)c1-c1nn[nH]n1 [Example 197]	0.7813 µM	10.12	9.40	0.7813 µM	3.125 µM	2.344 µM	1.172 µM	1.00	9.84
NCCCNS(=O)(=O)c1ccc(-c2cccc3[nH]cnc23)c(-c2nn[nH]n2)c1S(N)(=O)=O [Example 198, N^1-(3-aminopropyl)-4-(1H-benzo[d]imidazol-4-yl)-3-(2H-tetrazol-5-yl)benzene-1,2-disulfonamide]	0.7813 µM	10.23	9.53	0.7813 µM	2.344 µM	1.172 µM	1.172 µM	1.00	9.87
NCCNS(=O)(=O)c1ccc(-c2cccc3[nH]cnc23)c(-c2nn[nH]n2)c1S(N)(=O)=O [Example 199, N^1-(2-aminoethyl)-4-(1H-benzo[d]imidazol-4-yl)-3-(2H-tetrazol-5-yl)benzene-1,2-disulfonamide]	0.7813 µM	10.59	9.99	1.432 µM	2.865 µM	1.042 µM	1.042 µM	0.55	10.33
NS(=O)(=O)c1c(S(=O)(=O)N[C@H]2C[C@H](N)C2)ccc(-c2cccc3[nH]cnc23)c1-c1nn[nH]n1 [Example 200, N^1-((1r,3r)-3-aminocyclobutyl)-4-(1H-benzo[d]imidazol-4-yl)-3-(2H-tetrazol-5-yl)benzene-1,2-disulfonamide]	0.7813 µM	10.28	9.56	0.7813 µM	3.125 µM	1.563 µM	1.563 µM	1.00	9.94
